For this test, the system named is A375 melanoma xenografts. The experiment in a line: tumor growth of subcutaneously growing A375 melanoma xenografts. Type of test: in vivo, nacked mice. As to conditions: i.v.; doxorubicin 2×8 mg/kg on days 8 and 15; FIG. 5. The method, then:
Animals: nacked mice; stock solution of doxorubicin (2 mg/ml); stock solution of 1:6 mg/ml in 10 mM sodium phosphate, 5% D-glucose (pH 6.4), control (buffer): glucose phosphate buffer (10 mM sodium phosphate, 5% D-glucose—pH 6.4) on days 8 and 15.

Each structure is given as a SMILES string.

As to `COc1cccc2c1C(=O)c1c(O)c3c(c(O)c1C2=O)C[C@@](O)(C(=O)CO)C[C@@H]3O[C@H]1C[C@H](N)[C@H](O)[C@H](C)O1` [Doxorubicin, doxorubicin], the “relative tumor volume compared to treatment with the derivative according to the invention” value is “approximately three times larger tumor volume”.

The values are drawn from US7803903B2, “Protein-binding doxorubicin peptide derivatives” (priority 2003, dated 2010).
